The experiment relates to PC3 cells. Briefly: NAMPT Cell Proliferation Assay. The format is cell-based. The conditions noted are these: Homo sapiens, PC-3, 120 h, 5 days incubation, cell viability by Cell Titer Glo. The method, boiled down: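 Five-day CellTiter-Glo viability readout in PC3 cells grown in RPMI/10% heat-inactivated FBS. Compounds added after overnight attachment as a 10-fold dilution series, […]. Percent inhibition fitted to sigmoidal dose-response to derive IC50.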
(Cellular ATP, detected with luciferase, serves as a proxy for viable cell number.)

Each structure is given as a SMILES string. pIC50: −log10 of the molar value.

`Cc1ccc(C(=O)N2CCC(Oc3ccc(NC(=O)C4CN(c5cccnn5)C4)cc3)CC2)s1` [Example 219, N-[4-({1-[(5-methylthiophen-2-yl)carbonyl]piperidin-4-yl}oxy)phenyl]-1-(pyridazin-3-yl)azetidine-3-carboxamide]: the pIC50 is 8.05. Turning to `O=C(Nc1ccc(OC2CCN(C(=O)Cc3ccc(C(F)(F)F)cc3)CC2)cc1)C1CN(c2cccnn2)C1` [Example 220, 1-(pyridazin-3-yl)-N-{4-[(1-{[4-(trifluoromethyl)phenyl]acetyl}piperidin-4-yl)oxy]phenyl}azetidine-3-carboxamide], the negative-log IC50 (pIC50) is 7.88. The same measure for `O=C(Nc1ccc(OC2CCN(C(=O)C3CCCO3)CC2)cc1)C1CN(c2cccnn2)C1` (stereo not drawn) [Example 221, 1-(pyridazin-3-yl)-N-(4-{[1-(tetrahydrofuran-2-ylcarbonyl)piperidin-4-yl]oxy}phenyl)azetidine-3-carboxamide]: 8.05. On to `O=C(Nc1ccc(OC2CCN(C(=O)c3cccc(C(F)(F)F)c3)CC2)cc1)C1CN(c2cccnn2)C1` [Example 222, 1-(pyridazin-3-yl)-N-[4-({1-[3-(trifluoromethyl)benzoyl]piperidin-4-yl}oxy)phenyl]azetidine-3-carboxamide], for which the pIC50 was 7.81. Turning to `O=C(Nc1ccc(OC2CCN(C(=O)c3ccsc3)CC2)cc1)C1CN(c2cccnn2)C1` [Example 223, 1-(pyridazin-3-yl)-N-(4-{[1-(thiophen-3-ylcarbonyl)piperidin-4-yl]oxy}phenyl)azetidine-3-carboxamide], the pIC50 was 8.26.

For `O=C(Nc1ccc(OC2CCN(C(=O)c3cccc(OC(F)(F)F)c3)CC2)cc1)C1CN(c2cccnn2)C1` [Example 224, 1-(pyridazin-3-yl)-N-[4-({1-[3-(trifluoromethoxy)benzoyl]piperidin-4-yl}oxy)phenyl]azetidine-3-carboxamide], the pIC50 is 8.12.

Turning to `CC(C)CC(=O)N1CCC(Oc2ccc(NC(=O)C3CN(c4cccnn4)C3)cc2)CC1` [Example 225, N-(4-{[1-(3-methylbutanoyl)piperidin-4-yl]oxy}phenyl)-1-(pyridazin-3-yl)azetidine-3-carboxamide], the negative-log IC50 (pIC50) is 8.06.

For the compound `O=C(Nc1ccc(OC2CCN(C(=O)C3CCOC3)CC2)cc1)C1CN(c2cccnn2)C1` (stereo not drawn) [Example 226, 1-(pyridazin-3-yl)-N-(4-{[1-(tetrahydrofuran-3-ylcarbonyl)piperidin-4-yl]oxy}phenyl)azetidine-3-carboxamide], the pIC50 is 8.05. The same measure for `O=C(Nc1ccc(OC2CCN(C(=O)Cc3cccc(F)c3)CC2)cc1)C1CN(c2cccnn2)C1` [Example 227, N-[4-({1-[(3-fluorophenyl)acetyl]piperidin-4-yl}oxy)phenyl]-1-(pyridazin-3-yl)azetidine-3-carboxamide]: 8.34; for `O=C(Nc1ccc(OC2CCN(C(=O)c3ccccc3F)CC2)cc1)C1CN(c2cccnn2)C1` [Example 228, N-(4-{[1-(2-fluorobenzoyl)piperidin-4-yl]oxy}phenyl)-1-(pyridazin-3-yl)azetidine-3-carboxamide]: 8.22. The same measure for `O=C(Nc1ccc(OC2CCN(C(=O)c3ccc(F)cc3F)CC2)cc1)C1CN(c2cccnn2)C1` [Example 229, N-(4-{[1-(2,4-difluorobenzoyl)piperidin-4-yl]oxy}phenyl)-1-(pyridazin-3-yl)azetidine-3-carboxamide]: 8.19; for `O=C(Nc1ccc(OC2CCN(C(=O)c3ccc(F)cc3)CC2)cc1)C1CN(c2cccnn2)C1` [Example 230, N-(4-{[1-(4-fluorobenzoyl)piperidin-4-yl]oxy}phenyl)-1-(pyridazin-3-yl)azetidine-3-carboxamide]: 8.04. The same measure for `O=C(Nc1ccc(OC2CCN(C(=O)c3cccc(F)c3)CC2)cc1)C1CN(c2cccnn2)C1` [Example 231, N-(4-{[1-(3-fluorobenzoyl)piperidin-4-yl]oxy}phenyl)-1-(pyridazin-3-yl)azetidine-3-carboxamide]: 8.06; for `O=C(Nc1ccc(OC2CCN(C(=O)Cc3ccc(F)cc3)CC2)cc1)C1CN(c2cccnn2)C1` [Example 232, N-[4-({1-[(4-fluorophenyl)acetyl]piperidin-4-yl}oxy)phenyl]-1-(pyridazin-3-yl)azetidine-3-carboxamide]: 8.06; for `O=C(Nc1ccc(OC2CCN(C(=O)CC3CC3)CC2)cc1)C1CN(c2cccnn2)C1` [Example 233, N-(4-{[1-(cyclopropylacetyl)piperidin-4-yl]oxy}phenyl)-1-(pyridazin-3-yl)azetidine-3-carboxamide]: 8.06. For the compound `O=C(Nc1ccc(OC2CCN(C(=O)c3ccc(F)c(F)c3)CC2)cc1)C1CN(c2cccnn2)C1` [Example 234, N-(4-{[1-(3,4-difluorobenzoyl)piperidin-4-yl]oxy}phenyl)-1-(pyridazin-3-yl)azetidine-3-carboxamide], the pIC50 was 7.98.

Consider `O=C(Nc1ccc(OC2CCN(C(=O)c3ccc(OC(F)(F)F)cc3)CC2)cc1)C1CN(c2cccnn2)C1` [Example 235, 1-(pyridazin-3-yl)-N-[4-({1-[4-(trifluoromethoxy)benzoyl]piperidin-4-yl}oxy)phenyl]azetidine-3-carboxamide], for which the negative logarithm of the IC50 (pIC50) is 7.91.

Consider `O=C(Nc1ccc(OC2CCN(C(=O)Cc3ccc(F)cc3F)CC2)cc1)C1CN(c2cccnn2)C1` [Example 236, N-[4-({1-[(2,4-difluorophenyl)acetyl]piperidin-4-yl}oxy)phenyl]-1-(pyridazin-3-yl)azetidine-3-carboxamide], for which the pIC50 was 8.03.

Consider `O=C(Nc1ccc(OC2CCN(C(=O)c3ccc(C(F)(F)F)cc3)CC2)cc1)C1CN(c2cccnn2)C1` [Example 237, 1-(pyridazin-3-yl)-N-[4-({1-[4-(trifluoromethyl)benzoyl]piperidin-4-yl}oxy)phenyl]azetidine-3-carboxamide], for which the pIC50 is 7.99.

The compound `O=C(Nc1ccc(OC2CCN(C(=O)Cc3ccc(OC(F)(F)F)cc3)CC2)cc1)C1CN(c2cccnn2)C1` [Example 238, 1-(pyridazin-3-yl)-N-{4-[(1-{[4-(trifluoromethoxy)phenyl]acetyl}piperidin-4-yl)oxy]phenyl}azetidine-3-carboxamide] gave a pIC50 of 7.80. In the case of `O=C(Nc1ccc(OC2CCN(C(=O)Cc3cc(F)cc(F)c3)CC2)cc1)C1CN(c2cccnn2)C1` [Example 239, N-[4-({1-[(3,5-difluorophenyl)acetyl]piperidin-4-yl}oxy)phenyl]-1-(pyridazin-3-yl)azetidine-3-carboxamide], the pIC50 was 8.17. Regarding `O=C(Nc1ccc(OC2CCN(C(=O)Cc3cccc(C(F)(F)F)c3)CC2)cc1)C1CN(c2cccnn2)C1` [Example 240, 1-(pyridazin-3-yl)-N-{4-[(1-{[3-(trifluoromethyl)phenyl]acetyl}piperidin-4-yl)oxy]phenyl}azetidine-3-carboxamide], the pIC50 is 7.99. The same measure for `CC(C)(C)C(=O)N1CCC(Oc2ccc(NC(=O)C3CN(c4cccnn4)C3)cc2)CC1` [Example 241, N-(4-{[1-(2,2-dimethylpropanoyl)piperidin-4-yl]oxy}phenyl)-1-(pyridazin-3-yl)azetidine-3-carboxamide]: 8.11; for `O=C(Nc1ccc(OC2CCN(C(=O)c3ccccn3)CC2)cc1)C1CN(c2cccnn2)C1` [Example 242, 1-(pyridazin-3-yl)-N-(4-{[1-(pyridin-2-ylcarbonyl)piperidin-4-yl]oxy}phenyl)azetidine-3-carboxamide]: 8.04; for `O=C(Nc1ccc(OC2CCN(C(=O)c3cc(F)cc(F)c3)CC2)cc1)C1CN(c2cccnn2)C1` [Example 243, N-(4-{[1-(3,5-difluorobenzoyl)piperidin-4-yl]oxy}phenyl)-1-(pyridazin-3-yl)azetidine-3-carboxamide]: 8.03.

`CC(=O)N1CCC(Oc2ccc(NC(=O)C3CN(c4cccnn4)C3)cc2)CC1` [Example 244, -{4-[(1-acetylpiperidin-4-yl)oxy]phenyl}-1-(pyridazin-3-yl)azetidine-3-carboxamide] had a pIC50 of 7.98. For the compound `O=C(Nc1ccc(OC2CCN(C(=O)c3ccc(Cl)cc3)CC2)cc1)C1CN(c2cccnn2)C1` [Example 245, N-(4-{[1-(4-chlorobenzoyl)piperidin-4-yl]oxy}phenyl)-1-(pyridazin-3-yl)azetidine-3-carboxamide], the pIC50 was 8.15.

In turn, `COCC(=O)N1CCC(Oc2ccc(NC(=O)C3CN(c4cccnn4)C3)cc2)CC1` [Example 246, N-(4-{[1-(methoxyacetyl)piperidin-4-yl]oxy}phenyl)-1-(pyridazin-3-yl)azetidine-3-carboxamide] had a pIC50 of 8.02. Regarding `O=C(Nc1ccc(OC2CCN(C(=O)Cc3ccccc3F)CC2)cc1)C1CN(c2cccnn2)C1` [Example 247, N-[4-({1-[(2-fluorophenyl)acetyl]piperidin-4-yl}oxy)phenyl]-1-(pyridazin-3-yl)azetidine-3-carboxamide], the pIC50 was 8.10. Regarding `CCC(C)(C)C(=O)N1CCC(Oc2ccc(NC(=O)C3CN(c4cccnn4)C3)cc2)CC1` [Example 248, N-(4-{[1-(2,2-dimethylbutanoyl)piperidin-4-yl]oxy}phenyl)-1-(pyridazin-3-yl)azetidine-3-carboxamide], the negative-log IC50 (pIC50) is 8.18. The same measure for `O=C(Nc1ccc(OC2CCN(C(=O)c3cccs3)CC2)cc1)C1CN(c2cccnn2)C1` [Example 249, 1-(pyridazin-3-yl)-N-(4-{[1-(thiophen-2-ylcarbonyl)piperidin-4-yl]oxy}phenyl)azetidine-3-carboxamide]: 8.63. The same measure for `O=C(Nc1ccc(OC2CCN(C(=O)c3cccc(Cl)c3)CC2)cc1)C1CN(c2cccnn2)C1` [Example 250, N-(4-{[1-(3-chlorobenzoyl)piperidin-4-yl]oxy}phenyl)-1-(pyridazin-3-yl)azetidine-3-carboxamide]: 8.04; for `O=C(Nc1ccc(OC2CCN(C(=O)C3CC3)CC2)cc1)C1CN(c2cccnn2)C1` [Example 251, N-(4-{[1-(cyclopropylcarbonyl)piperidin-4-yl]oxy}phenyl)-1-(pyridazin-3-yl)azetidine-3-carboxamide]: 8.10.

One may read the pIC50 as the negative decadic logarithm of the IC50, by convention in mol/L.

These data come from patent US20130303509A1, “NAMPT INHIBITORS” (AbbVie Inc., priority 2012, published 2013).
